Results as given in paper PMC12094199 (Science Advances, 2025).

Key:
Cell survival assay = type: cell-based; conditions: human, HEK-293 cells
U87MG cells = assay: Cell survival assay; type: cell-based; conditions: Homo sapiens, U-87 MG, 48 h, read-out: IC50 (cytotoxicity)

**Q.** With `CC(=O)O[C@H]1C(=O)[C@@]2(C)[C@H]([C@H](OC(=O)c3ccccc3)[C@]3(O)C[C@H](OC(=O)[C@H](O)[C@@H](NC(=O)c4ccccc4)c4ccccc4)C(C)=C1C3(C)C)[C@]1(OC(C)=O)CO[C@@H]1C[C@@H]2O` [PTX, paclitaxel] as the molecule, how does the IC50 at 48 h (Cell survival assay) read?
**A.** 0.0278 ± 0.0033 µM

**Q.** What about the IC50 (U87MG cells) of the same molecule?
**A.** 0.218 ± 0.0542 µM
